Experimental data as given in patent US7892350B2, “Sacrificial agents for fly ash concrete” (Boral Material Technologies Inc., priority 2003, dated 2011).
Where two headings read alike, the source gives them in different places.

Assays:
[1] = Paste air entrainment, Maximum air protocol; details: for Average of air entrained at 66 min: over the fly ash:PCA pastes of Table 9
Protocol: Preparation of pastes: Pastes were prepared by pouring 400 g of cementitious powder in the 350-400 g of solution (water and additives) in a vessel (8.4 cm dia,×14.5 cm height) while gently stirring with a spatula; the exact quantity of water depends on the selected W/B ratio (see below); rapid hand mixing was continued for 1 minute, followed by intense stirring at 25° C. during 2 min using a hand-held mixer (BRAUN model MR400). The level of air entrained is dependent on the mode of utilisation of the mixer, namely the height of the mixer from the bottom of the vessel and the length of the mixing stroke; the following protocols were adopted.
Fluidity measurements: For all air entrainment measurements, the initial fluidity of the paste (without additives) was controlled using the ‘mini-slump’ procedure widely used for paste and grouts. In this protocol, a portion of the paste was transferred into the min-slump cone (a 2¼″ high, 1½″ bottom diameter, ¾″ top diameter cone); excess paste was skimmed-off with a straight; the cone was then raised and the spread diameter of the paste was recorded (average of two measurements). The fluidity is measured at 10 minutes after mixing. The paste is returned to the batch and reserved for subsequent AE measurements. The fluidity of the paste (without SA and AEA) is adjusted by changing the amount of water (water/cementitious ratio) which yields a spread diameter of 115±5 mm. The latter is monitored regularly.
Air entrainment measurements: For air entrainment measurements, a portion of the paste was transferred to overfill a Plexiglas cylinder (3¾ inches height, 2 inches interior diameter), which was then levelled flush to the top of the cylinder with a straight edge. The mass of the filled cylinder, minus the weight of the empty cylinder, is then recorded and used to calculate the amount of air according to the following formula: […]
This procedure was carried out at three times at 30 min. intervals (6, 36 and 66 min); the paste was let to stand at rest between measurements, and was stirred gently by hand for one minute prior to the subsequent air entrainment measurements.
Other combinations of air entrainment agents and sacrificial agents were prepared as stock solutions following the procedure outlined above, adjusting the weights of the various components to achieve the desired component ratios.

[2] = Second sacrificial agent testing protocol: paste air measurements with DDBS (0.0125 wt %) and rating; for Overall performance rating (second protocol rating): key: 0: Fail; 1: Poor; 2: Good; 3: Preferred; 4: Most preferred; for SA Rating (0-4): key: 0: Fail; 1: Poor; 2: Good; 3: Preferred; 4: Most preferred
Method in brief: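 Air entrainment was measured in cement pastes of fixed composition and fluidity. The candidate agent was tested alone at 0.1 wt % in a cement-only paste. It was also tested at 0.05 and 0.1 wt % in a fly ash (B1)-cement paste with DDBS, where air recovery was calculated against the same paste without agent.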

[3] = 50:50 fly ash B1 (LOI 4.36%):PCA paste, Air 30 (0.0125 wt %)/ND/X=1/4/4, X = the labelled SA
[4] = 50:50 fly ash C1 (LOI 1.62%):PCA paste, Air 30 (0.0125 wt %)/ND/X=1/4/4, X = the labelled SA
[5] = 50:50 fly ash D (LOI […]):PCA paste, Air 30 (0.0125 wt %)/ND/X=1/4/4, X = the labelled SA
[6] = 50:50 fly ash M1 (LOI […]):PCA paste, Air 30 (0.0125 wt %)/ND/X=1/4/4, X = the labelled SA
[7] = 50:50 fly ash M2 (LOI 5.34%):PCA paste, Air 30 (0.0125 wt %)/ND/X=1/4/4, X = the labelled SA
[8] = 50:50 fly ash M3 (LOI 11.33%):PCA paste, Air 30 (0.0125 wt %)/ND/X=1/4/4, X = the labelled SA
[9] = 50:50 fly ash R (LOI […]):PCA paste, Air 30 (0.0125 wt %)/ND/X=1/4/4, X = the labelled SA
[10] = PCA paste, no fly ash, Air 30 (0.0125 wt %)/ND/X=1/4/4, X = the labelled SA
[11] = Air 30 (0.0125 wt %)/ND/X=1/4/4, X = the labelled SA
[12] = Portland cement paste (PCA), […]
[13] = sacrificial agent overall rating index
[14] = sum of ratings of air entrainment recovery by 0.05% and 0.1% SA, DDBS 0.0125 wt %, 50:50 B1 fly ash:cement paste

Compound	Air entrained at 66 min [1, 3] [vol %]	Air entrained at 66 min [1, 4] [vol %]	Air entrained at 66 min [1, 5] [vol %]	Air entrained at 66 min [1, 6] [vol %]	Air entrained at 66 min [1, 7] [vol %]	Air entrained at 66 min [1, 8] [vol %]	Air entrained at 66 min [1, 9] [vol %]	Air entrained at 66 min [1, 10] [vol %]	Average of air entrained at 66 min [1, 11] [%]	Overall performance rating (second protocol rating) [2]	PCA + 0.1% SA (level of air entrainment by the candidate sacrificial agent) [2, 12]	SA Rating (0-4) [2, 13]	other results
CC(O)C(O)c1ccccc1 (centres unmarked) [1-Phe 2-Pro, 1-Phenyl 2-propylene glycol]	13	18	18	16	9	13	16	17	15	–	–	–	–
CCCCOCCOCCO [Di-EGBE, Di-ethylene glycol butyl ether]	16	21	24	21	11	17	22	22	19	4	2.7	4	B1 + 0.0125% DDBS + 0.05% SA (air entrainment) ([2]; B1 FA/cement paste, […]): 9.9; B1 + 0.0125% DDBS + 0.1% SA (air entrainment) ([2]; B1 FA/cement paste, […]): 11.2
COC(C)COC(C)CO (centres unmarked) [Di-PGME, Di-propylene glycol methyl ether]	16	21	25	20	11	15	20	23	18	–	1.1	4	B1 + 0.0125% DDBS + 0.05% SA (air entrainment) ([2]; B1 FA/cement paste, 0.0125 wt % DDBS, 0.05 wt % SA): 8.7; B1 + 0.0125% DDBS + 0.1% SA (air entrainment) ([2]; B1 FA/cement paste, 0.0125 wt % DDBS, 0.10 wt % SA): 9.7; Overall performance rating (second protocol rating) [2, 14]: 4
COCCO [EGME, Ethylene glycol methyl ether]	12	20	20	17	8	12	17	18	15	1	–	–	B1 + 0.0125% DDBS + 0.05% SA (air entrainment) [2]: 3.3; B1 + 0.0125% DDBS + 0.1% SA (air entrainment) [2]: 4.3; PCA + 0.1% SA (level of air entrainment by the candidate sacrificial agent) [2]: 0.7; SA Rating (0-4) [2]: 1
OCC(O)CO [Glycerol]	12	18	18	16	7	11	18	16	14	2	0.1	2	B1 + 0.0125% DDBS + 0.1% SA (air entrainment) ([2]; B1 FA/cement paste, […]): 2.3
Polyethylene glycol (Molecular weight = 200) [PEG 200]	14	–	20	19	9	–	18	18	16	–	–	–	Overall performance rating (second protocol rating) [2, 14]: 3
Polyethylene glycol (Molecular weight = 1500) [PEG 1500]	14	–	21	18	9	–	18	20	16	–	–	–	Air entrained at 66 min ([1]; 50:50 fly ash B1 (LOI 4.36%):PCA paste, Air 30 (0.0125%)/NS/X=1/4/4, X = the labelled SA): 8 vol %; Air entrained at 66 min ([1]; 50:50 fly ash D (LOI […]):PCA paste, Air 30 (0.0125%)/NS/X=1/4/4, X = the labelled SA): 19 vol %; Air entrained at 66 min ([1]; 50:50 fly ash M1 (LOI […]):PCA paste, Air 30 (0.0125%)/NS/X=1/4/4, X = the labelled SA): 18 vol %; Air entrained at 66 min ([1]; 50:50 fly ash M2 (LOI 5.34%):PCA paste, Air 30 (0.0125%)/NS/X=1/4/4, X = the labelled SA): 5 vol %; Air entrained at 66 min ([1]; 50:50 fly ash R (LOI […]):PCA paste, Air 30 (0.0125%)/NS/X=1/4/4, X = the labelled SA): 16 vol %; Air entrained at 66 min ([1]; PCA paste, no fly ash, Air 30 (0.0125%)/NS/X=1/4/4, X = the labelled SA): 11 vol %
Sodium di-butyl naphthalene sulfonate [DBNS]	–	–	–	–	–	–	–	–	–	–	–	–	Air entrained at 66 min ([1]; 50:50 fly ash B1 (LOI 4.36%):PCA paste, Air 30 (0.0125 wt %)/X/ButOH=1/4/4, X = the labelled sulfonated SA): 11 vol %; Air entrained at 66 min ([1]; 50:50 fly ash D (LOI […]):PCA paste, Air 30 (0.0125 wt %)/X/ButOH=1/4/4, X = the labelled sulfonated SA): 20 vol %; Air entrained at 66 min ([1]; 50:50 fly ash M2 (LOI 5.34%):PCA paste, Air 30 (0.0125 wt %)/X/ButOH=1/4/4, X = the labelled sulfonated SA): 7 vol %; Air entrained at 66 min ([1]; PCA paste, no fly ash, Air 30 (0.0125 wt %)/X/ButOH=1/4/4, X = the labelled sulfonated SA): 17 vol %
